The supplement of paper PMC10307832

Assays:
Experiment in all cases: relative viability (nuclei count vs DMSO), 5 days (fraction); higher = more cells survive
Vandetanib + Phenformin = compound: COc1cc2/c(=N/c3ccc(Br)cc3F)nc[nH]c2cc1OCC1CCN(C)CC1 [Vandetanib] + N=C(N)NC(=N)NCCc1ccccc1 [Phenformin] (partner 250 µM)
How it was run: (§1)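 A single step with final 0.05% Triton X-100, 1% formaldehyde and 1 ug/ml Hoechst fixed the cells and stained nuclei 5 days after treatment. Lung cancer cell lines in 1536-well plates had been treated by pin tool the day after seeding with one drug alone or a fixed anchor-drug dose plus five library-drug doses (not always all listed) in √10 steps, and nuclei were counted on 4× images. Relative viability is the ratio of nuclei in treated wells to nuclei in vehicle wells, taken as the median of duplicate plates.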

[1] = compound: C1=CC=C2C(=C1)N=C(S2)C(C#N)C3=NC(=NC=C3)NCCC4=CN=CC=C4 + N=C(N)NC(=N)NCCc1ccccc1 [Phenformin] (partner 250 µM)
How it was run: as §1

[2] = compound: C1=CC=C2C(=C1)N=C(S2)C(C#N)C3=NC(=NC=C3)NCCC4=CN=CC=C4 + CC(=O)c1c(C)c2cnc(Nc3ccc(N4CCNCC4)cn3)nc2n(C2CCCC2)c1=O [Palbociclib] (partner 0.5 µM)
How it was run: as §1

[3] = compound: C1=CC=C2C(=C1)N=C(S2)C(C#N)C3=NC(=NC=C3)NCCC4=CN=CC=C4 + CC1(C)CCC(c2ccc(Cl)cc2)=C(CN2CCN(c3ccc(C(=O)NS(=O)(=O)c4ccc(N[C@H](CCN5CCOCC5)CSc5ccccc5)c(S(=O)(=O)C(F)(F)F)c4)cc3)CC2)C1 [Navitoclax] (partner 0.5 µM)
How it was run: as §1

Cell Line	relative viability (Vandetanib + Phenformin; first compound 0.02 µM)	relative viability (Vandetanib + Phenformin; first compound 0.06325 µM)	relative viability (Vandetanib + Phenformin; first compound 0.2 µM)	relative viability (Vandetanib + Phenformin; first compound 0.6325 µM)	relative viability (Vandetanib + Phenformin; first compound 2 µM)	relative viability ([1]; first compound 0.005 µM)	relative viability ([1]; first compound 0.01581 µM)	relative viability ([1]; first compound 0.05 µM)	relative viability ([1]; first compound 0.1581 µM)	relative viability ([1]; first compound 0.5 µM)	relative viability ([2]; first compound 0.005 µM)	relative viability ([2]; first compound 0.01581 µM)	relative viability ([2]; first compound 0.05 µM)	relative viability ([2]; first compound 0.1581 µM)	relative viability ([2]; first compound 0.5 µM)	relative viability ([3]; first compound 0.005 µM)	relative viability ([3]; first compound 0.01581 µM)	relative viability ([3]; first compound 0.05 µM)	relative viability ([3]; first compound 0.1581 µM)	relative viability ([3]; first compound 0.5 µM)
NCI-H522	0.691	0.623	0.66	0.585	0.712	0.649	0.642	0.61	0.691	0.588	0.95	0.958	0.96	0.917	1.09					
RERF-LC-KJ	0.436	0.379	0.37	0.375	0.335	0.396	0.447	0.403	0.442	0.377	0.977	1.13	1.05	1.12	1.01	1.29	0.811	0.804	0.843	0.875
A-427	0.297	0.303	0.274	0.253	0.22	0.252	0.34	0.367	0.322	0.288	0.542	0.5	0.519	0.525	0.56	0.964	0.95	0.956	0.896	1.05
EKVX	0.245	0.234	0.228	0.227	0.219	0.245	0.239	0.243	0.273	0.23	0.294	0.367	0.41	0.531	0.285	0.947	0.986	1.09	0.949	1.11
NCI-H460	0.498	0.48	0.544	0.49	0.48	0.281	0.57	0.503	0.695	0.29		0.146	0.118	0.147	0.143		1.38	1.13	1.23	0.656
HARA	0.471	0.447	0.44	0.381	0.351	0.474	0.484	0.488	0.46	0.465	0.298	0.235	0.229	0.257	0.365	1.09	1.16	1.14	1.22	1.21
NCI-H1944	0.205	0.195	0.209	0.168	0.188	0.159	0.227	0.206	0.234	0.203	0.314	0.373	0.293	0.32	0.318	1.05	1.06	0.983	1.06	1.04
BEN	0.266	0.278	0.279	0.292	0.262	0.243	0.28	0.286	0.304	0.46	0.417	0.472	0.473	0.473	0.444	0.0669	0.0686	0.0618	0.134	0.0603
PC-14	0.576	0.478	0.215	0.235	0.125	0.381	0.401	0.542	0.75	0.45	0.34	0.479	0.515	0.559	0.441	0.808	1.13	1.09	1.09	0.851
NCI-H322M	0.7	0.731	0.852	0.622	0.493	0.63	0.688	0.708	0.81	0.694	0.427	0.501	0.484	0.476	0.488	1.24	1.24	1.23	1.49	1.18
NCI-H1651	0.304	0.299	0.325	0.353	0.311	0.281	0.352	0.364	0.403	0.337	0.473	0.518	0.535	0.539	0.504	0.9	1.08	0.95	1.11	1.17
LCLC-97TM1	0.457	0.42	0.441	0.393	0.422	0.429	0.417	0.403	0.431	0.407	0.236	0.265	0.235	0.251	0.19	0.382	0.429	0.339	0.596	0.288
NCI-H727	0.565	0.468	0.712	0.283	0.448		0.577	0.45	0.55	0.641	0.508	0.594	0.64	0.658	0.673	0.465	0.334	0.347	0.414	0.397
NCI-H1623	0.574	0.525	0.574	0.526	0.622	0.62	0.582	0.567	0.617	0.579										
NCI-H1666	0.541	0.559	0.585	0.586	0.562	0.529	0.578	0.556	0.539	0.511	0.64	0.654	0.632	0.631	0.657	0.841	0.937	0.965	1.05	0.797
IA-LM																	0.816	0.817	0.826	0.568
NCI-H1792	0.298	0.236	0.184	0.254	0.175			0.286	0.697	0.388	0.473	0.732	0.622	0.995	0.474		0.571	0.631	0.961	0.451
NCI-H1299																1.08	1.11	1.05	1.11	1.09
HCC-366	0.596	0.603	0.62	0.586	0.505	0.551	0.615	0.547	0.722	0.601	0.302	0.44	0.364	0.375	0.282	0.853	0.998	1.04	1.28	0.98
NCI-H1437	0.271	0.3	0.345	0.272	0.299	0.298	0.3	0.345	0.339	0.223	0.372	0.329	0.327	0.312	0.304	1.02	1.15	1.14	1.17	1.08

Cell Line	relative viability (Vandetanib + Phenformin; first compound 0.02 µM)	relative viability (Vandetanib + Phenformin; first compound 0.06325 µM)	relative viability (Vandetanib + Phenformin; first compound 0.2 µM)	relative viability (Vandetanib + Phenformin; first compound 0.6325 µM)	relative viability (Vandetanib + Phenformin; first compound 2 µM)	relative viability ([1]; first compound 0.005 µM)	relative viability ([1]; first compound 0.01581 µM)	relative viability ([1]; first compound 0.05 µM)	relative viability ([1]; first compound 0.1581 µM)	relative viability ([1]; first compound 0.5 µM)	relative viability ([2]; first compound 0.005 µM)	relative viability ([2]; first compound 0.01581 µM)	relative viability ([2]; first compound 0.05 µM)	relative viability ([2]; first compound 0.1581 µM)	relative viability ([2]; first compound 0.5 µM)	relative viability ([3]; first compound 0.005 µM)	relative viability ([3]; first compound 0.01581 µM)	relative viability ([3]; first compound 0.05 µM)	relative viability ([3]; first compound 0.1581 µM)	relative viability ([3]; first compound 0.5 µM)
EPLC-272H	0.326		0.294	0.273	0.301	0.225	0.243	0.275	0.286	0.311	0.358	0.32	0.317	0.284	0.304	0.94	1.05	1.14	1.04	1.08
NCI-H1703																1.01	1.04	1.02	1.14	1.02
HCC-15	0.476	0.429	0.468	0.449	0.447	0.427	0.437	0.455	0.579	0.401	0.701	0.771	0.734	0.74	0.627	0.736	0.787	0.664	0.749	0.602
NCI-H2347	0.336		0.256	0.403	0.493	0.417	0.334	0.322	0.611	0.455	0.455	0.45	0.484	0.447	0.444	0.727	0.891	0.834	0.827	0.735
COR-L 105	0.535	0.483	0.449	0.292	0.294	0.322	0.487	0.582	0.525	0.411	0.376	0.408	0.435	0.39	0.345	0.819	0.753	0.599	0.667	0.729
NCI-H1650	0.409	0.332	0.251	0.329	0.321	0.375	0.335	0.523	0.402	0.377	0.318	0.272	0.336	0.395	0.175	0.964	1.17	1.22	1.31	1.07
NCI-H838	0.533	0.579	0.617	0.542	0.646	0.326	0.573	0.527	0.717	0.39	0.223	0.211	0.216	0.214	0.213	1.02	1.22	1.16	1.1	1.22
Calu-6																0.785	0.834	0.819	0.961	0.768
NCI-H2342	0.596	0.496	0.592	0.576	0.477	0.495	0.591	0.674	0.606	0.614	0.481	0.513	0.52	0.501	0.557					
LCLC-103H	0.316	0.319	0.357	0.344	0.31	0.289	0.336	0.286	0.369	0.298	0.491	0.468	0.514	0.522	0.485					
NCI-H1563	0.679	0.629	0.695	0.616	0.625	0.595	0.62	0.635	0.673	0.667										
EBC-1																0.402	0.426	0.317	0.472	0.298
NCI-H358	0.295	0.275	0.265	0.217	0.26	0.216	0.329	0.334	0.404	0.258	0.135	0.139	0.15	0.141	0.119					
SW 900	0.635	0.657	0.197	0.474	0.434	0.418	0.704	0.627	1.02	0.338	0.441	0.496	0.412	0.586	0.458					
NCI-H661	0.265	0.284	0.269	0.279	0.271	0.231	0.255	0.291	0.291	0.277	0.428	0.433	0.415	0.416	0.411					
NCI-H596	0.917	0.623	0.698	0.747	0.698	0.557	0.848	0.687	0.921	0.801						0.913	1.08	0.893	1.18	0.953
A549	0.195	0.133	0.121	0.142	0.0686	0.254		0.146	0.246	0.212						1.26	1.19	1.11	1.31	1.29
NCI-H1648												0.294		0.331	0.281					
ABC-1	0.248	0.205	0.256	0.275	0.266	0.245	0.22	0.241	0.219	0.251	0.525		0.597	0.554	0.451					
NCI-H650	0.464	0.448		0.472	0.364	0.49		0.483	0.452	0.505	0.321	0.336	0.301	0.321	0.323					
